For assay [1], the target named is T1, 5-hydroxytryptamine (5-HT) reuptake sites (Rattus norvegicus, UniProt P31652).
T1 construct: Frontal cortical tissue from the brains of male Sprague-Dawley rats; from tissue; host or cells: rat brain frontal cortex (crude synaptosomes in A2, washed membranes in A5)
As to the kind of experiment: displacement of [3H]paroxetine from 5-HT reuptake sites, frontal cortical membranes. It is filed as binding. As to conditions: 10^-6 M test compound, [3H]paroxetine 30 pM, one test only, read-out: 5-HT uptake (% displacement of specific binding of tritiated ligand). As for the experimental part: Frontal cortical tissue from the brains of male Charles River rats weighing 150-250 g was homogenised in ice-cold 0.25M sucrose (1:30 w/v) using a Kinematic polytron (speed setting 6 for 30 seconds) and centrifuged at 1000 g for 12 minutes. The supernatant was stored on ice and the pellet was resuspended in 0.25M sucrose (1:20 w/v) and centrifuged at 850 g for 10 minutes. Combined supernatants were diluted to 1:100 w/v with ice-cold 50 mM Tris-HCl, pH 7.5 (at 25° C.) containing 120 mM sodium chloride and 5 mM potassium chloride (Tris buffer) and centrifuged at 40,000 g for 10 minutes. The resulting pellet was resuspended in 50 mM Tris buffer (1:100 w/v) and recentrifuged at 40,000 g for 10 minutes. The final pellet was resuspended in 50 mM Tris buffer (equivalent to 2 mg wet weight of tissue/ml) and used immediately in the binding assay. All centrifugations were carried out at 4° C.
Membranes (1000 μl; equivalent to 2 mg wet weight of tissue/tube) were incubated with 200 μl [^3 H]paroxetine at a single concentration of 30 pM and 200 μl of distilled water (total binding) or 200 μl of test compound (10^-6 M) or 200 μl of citalopram (1 μM; non-specific binding) for 2 h at 22° C.
Membrane bound radioactivity was recovered by filtration under vacuum through Whatman GFIC filters using a Brandel cell harvester. Filters were rapidly washed with 16 ml ice-cold 50 mM Tris buffer and radioactivity determined by liquid scintillation counting (2 ml Packard MV Gold scintillator).
(§1) For each of these tests measuring the ability of compounds of Formula I to displace standard ligands from dopamine (DA), 5-hydroxytryptamine (5-HT) and noradrenaline (NA) reuptake sites in vitro, the percentage displacement of specific binding of tritiated ligand by 10^-6 M test compound was calculated in the following way:
(§2) Firstly, specific binding of tritiated ligand in the absence (A) and presence (B) of test compound was determined:
(§3) In the absence of compound:
(§4) A (dpm)=Total binding (dpm)-Non-specific binding (dpm)
(§5) In the presence of compound (10^-6 M):
(§6) B (dpm)=Binding at 10^-6 M (dpm)-Non-specific binding (dpm)
(§7) The specific binding of tritiated ligand in the presence (B) of compound was then converted to a percentage of specific binding of tritiated ligand in the absence (A) of compound:
(§8) % Specific binding at 10^-6 M=B (dpm)/A(dpm)×100
(§9) The percentage displacement of specific binding of trtiated ligand by the test compound (10^-6 M) was then obtained by subtraction of the percentage specific binding in the presence of compound from the percentage specific binding in the absence of compound, which is taken as the maximum binding and so equals 100%:
(§10) % Displacement at 10^-6 M=100-% Specific binding at 10^-6 M.
(§11) The values given below in Table 2 for examples 6 to 76 are % displacement of specific binding of tritiated ligand by 10^-6 M test compound and represent results from one test only. IA refers to <50% displacement.

Assay [2] deals with T2, dopamine (DA) reuptake sites (Rattus norvegicus, UniProt P23977).
T2 construct: Striatal tissue from the brains of male Charles River rats weighing 150-250 g; from tissue; host or cells: rat brain striatum (crude synaptosomes in A1, washed membranes in A4)
As to the kind of experiment: displacement of [3H]GBR 12935 from dopamine reuptake sites, striatal membranes. As to conditions: 10^-6 M test compound, [3H]GBR 12935 1 nM, one test only, read-out: DA uptake (% displacement of specific binding of tritiated ligand). It is filed as binding. On the procedure: Striatal tissue from the brains of male Charles River rats weighing 150-250 g was homogenised in ice-cold 0.32M sucrose (1:80 w/v) using a motor driven teflon pestle (12 strokes, 800 rpm) and centrifuged at 1000 g for 12 minutes. The supernatant was stored on ice and the pellet was resuspended in 0.32M sucrose (1:80 w/v) and centrifuged at 850 g for 10 minutes. Combined supernatants were diluted to 1:320 w/v with ice-cold 50 mM Tris-HCl, pH 7.4 (at 25° C.) containing 200 mM sodium chloride and 5 mM potassium chloride (Tris buffer) and centrifuged at 40,000 g for 10 minutes. The resulting pellet was resuspended in 10 ml of 50 mM Tris buffer, incubated at 37° C. for 10 min, diluted in 50 mM Tris buffer (1:320 w/v) and recentrifuged at 40,000 g for 10 minutes. The final pellet was resuspended in 50 mM Tris buffer (equivalent to 1.25 mg wet weight of tissue/ml) and used immediately in the binding assay. All centrifugations were carried out at 4° C.
Membranes (800 μl; equivalent to 1 mg wet weight of tissue/tube) were incubated with 100 μl [^3 H]GBR 12935 at a single concentration of 1 nM and 100 μl of distilled water (total binding) or 100 μl of test compound (10^-6 M) or 100 μl of mazindol (1 μM; non-specific binding) for 90 min at 4° C.
Membrane bound radioactivity was recovered by filtration under vacuum through Whatman GF/C filters, pre-soaked for 1 h in 0.5% polyethylenimine,using a Brandel cell harvester. Filters were rapidly washed with 16 ml of ice-cold 50 mM Tris-HCl, pH 7.4 and radioactivity determined by liquid scintillation counting (2 ml Packard MV Gold scintillator).
as §1, §2, §3, §4, §5, §6, §7, §8, §9, §10, §11
(In a radioligand displacement assay an active substance lowers the binding of a labelled ligand.)

In assay [3] the target is T3, noradrenaline (NA) reuptake sites (Rattus norvegicus, UniProt Q63380).
T3 construct: Frontal cortical tissue from the brains of male Sprague-Dawley rats; from tissue; host or cells: rat brain frontal cortex (crude synaptosomes in A3, washed membranes in A6)
As to the kind of experiment: displacement of [3H]nisoxetine from noradrenaline reuptake sites, frontal cortical membranes. As to conditions: 10^-6 M test compound, [3H]nisoxetine 0.6 nM, one test only, read-out: NA uptake (% displacement of specific binding of tritiated ligand). As for the experimental part:
Frontal cortical tissue from the brains of male Charles River rats weighing 150-250 g was homogenised in ice-cold 50 mM Tris-HCl, pH 7.4 (at 25° C.) containing 120 mM sodium chloride and 5 mM potassium chloride (Tris buffer; 1:60 w/v) using a Kinematic polytron (speed setting 6 for 30 seconds) and centrifuged at 40,000 g for 10 minutes. The supernatant was discarded and the pellet rehomogenised in Tris buffer, 1:60 w/v, and centrifuged at 40,000 g for 10 minutes. This step was repeated twice more so that, in total, the brain tissue was homogenised and centrifuged four times. The final pellet was resuspended in 50 mM Tris-HCl, pH 7.4 containing 300 mM sodium chloride and 5 mM potassium chloride (equivalent to 25 mg wet weight of tissue/ml) and used immediately in the binding assay. All centrifugations were performed at 4° C.
Membranes (400 μl; equivalent to 10 mg wet weight of tissue/tube) were incubated with 50 μl [^3 H]nisoxetine at a single concentration of 0.6 nM and 50 μl of distilled water (total binding) or 50 μl of test compound (10^-6 M) or 50 μl of mazindol (1 μM; non-specific binding) for 4 h at 4° C.
Membrane bound radioactivity was recovered by filtration under vacuum through Skatron 11734 filters using a Skatron cell harvester. Filters were rapidly washed with ice-cold 50 mM Tris-HCl, pH 7.4 containing 120 mM sodium chloride and 5 mM potassium chloride (wash setting 9,9,0) and radioactivity determined by liquid scintillation counting (1 ml Packard MV Gold scintillator).
as §1, §2, §3, §4, §5, §6, §7, §8, §9, §10, §11

The structures appear in SMILES notation. Structures can show the parent of a compound that is named as a salt.

T1 sequence (P31652 whole entry): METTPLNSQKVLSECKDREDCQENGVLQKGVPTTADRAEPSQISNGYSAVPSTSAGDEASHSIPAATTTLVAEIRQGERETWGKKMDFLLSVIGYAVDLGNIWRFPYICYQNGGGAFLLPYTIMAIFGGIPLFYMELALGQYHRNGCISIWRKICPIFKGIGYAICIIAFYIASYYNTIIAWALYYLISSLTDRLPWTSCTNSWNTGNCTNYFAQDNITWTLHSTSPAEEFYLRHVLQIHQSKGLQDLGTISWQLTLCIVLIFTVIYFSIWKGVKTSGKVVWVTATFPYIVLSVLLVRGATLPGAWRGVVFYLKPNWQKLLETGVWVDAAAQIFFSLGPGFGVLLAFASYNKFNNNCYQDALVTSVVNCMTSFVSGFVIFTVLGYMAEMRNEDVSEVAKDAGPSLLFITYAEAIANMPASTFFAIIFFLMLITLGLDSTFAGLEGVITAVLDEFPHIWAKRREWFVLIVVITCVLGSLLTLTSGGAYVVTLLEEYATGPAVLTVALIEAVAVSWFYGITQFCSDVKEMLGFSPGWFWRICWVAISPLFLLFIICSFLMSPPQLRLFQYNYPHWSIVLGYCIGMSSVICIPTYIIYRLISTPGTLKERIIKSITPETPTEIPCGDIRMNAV
T2 sequence (P23977 whole entry): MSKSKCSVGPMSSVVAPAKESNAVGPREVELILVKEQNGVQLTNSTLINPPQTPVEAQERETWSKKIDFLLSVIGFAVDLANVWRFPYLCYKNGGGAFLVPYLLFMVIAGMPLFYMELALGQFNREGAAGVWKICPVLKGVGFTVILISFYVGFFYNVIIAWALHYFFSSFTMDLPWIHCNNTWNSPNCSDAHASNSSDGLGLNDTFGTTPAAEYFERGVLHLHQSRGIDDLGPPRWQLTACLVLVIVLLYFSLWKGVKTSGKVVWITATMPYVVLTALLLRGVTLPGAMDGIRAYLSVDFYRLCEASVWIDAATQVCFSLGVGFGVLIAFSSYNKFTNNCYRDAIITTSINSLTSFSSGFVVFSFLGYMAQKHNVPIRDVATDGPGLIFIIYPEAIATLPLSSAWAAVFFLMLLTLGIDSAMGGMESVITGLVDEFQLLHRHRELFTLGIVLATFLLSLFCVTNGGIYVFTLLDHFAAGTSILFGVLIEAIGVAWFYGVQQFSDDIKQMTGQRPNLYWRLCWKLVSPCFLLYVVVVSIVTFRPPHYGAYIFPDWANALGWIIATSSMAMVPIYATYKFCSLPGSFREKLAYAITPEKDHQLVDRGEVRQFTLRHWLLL
T3 sequence (Q63380 1-617): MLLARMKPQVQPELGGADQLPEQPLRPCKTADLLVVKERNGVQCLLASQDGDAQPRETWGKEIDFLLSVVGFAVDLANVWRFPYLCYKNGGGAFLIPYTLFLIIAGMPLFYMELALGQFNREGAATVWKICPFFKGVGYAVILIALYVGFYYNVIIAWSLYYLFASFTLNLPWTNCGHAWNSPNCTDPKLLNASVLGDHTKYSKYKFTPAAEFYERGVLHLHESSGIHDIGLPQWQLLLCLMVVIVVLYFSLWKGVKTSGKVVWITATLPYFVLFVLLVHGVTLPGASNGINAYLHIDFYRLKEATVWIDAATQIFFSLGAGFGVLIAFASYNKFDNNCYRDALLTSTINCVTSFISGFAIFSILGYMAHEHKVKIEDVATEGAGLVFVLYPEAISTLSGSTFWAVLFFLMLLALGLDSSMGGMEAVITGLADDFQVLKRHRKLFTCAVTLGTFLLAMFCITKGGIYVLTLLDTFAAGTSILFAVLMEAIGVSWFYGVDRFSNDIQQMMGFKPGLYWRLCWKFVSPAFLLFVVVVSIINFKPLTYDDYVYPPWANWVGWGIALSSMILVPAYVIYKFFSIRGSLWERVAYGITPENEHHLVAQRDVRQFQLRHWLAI

Turning to `CCCCN=c1scc(C2(c3ccc(Cl)c(Cl)c3)CCC2)n1CCCC` [Example 18, 3-Butyl-2-butylimino-4-[1-(3,4-dichlorophenyl)cyclobutyl]-2,3-dihydrothiazole hydrobromide], the inhibition at 1 µM in assay [1] came to 95%; in assay [2] it was 106%; in assay [3], 63%.

Take `CSc1ccc(C2(C3=CSC4=NCCN34)CCC2)cc1` [Example 76, 3-[1-(4-Methylthiophenyl)cyclobutyl]-5,6-dihydroimidazo[2,1-b]thiazole hydrobromide]: the inhibition at 1 µM in assay [1] is 81%; in assay [2], under 50%; in assay [3], under 50%.

In the case of `COc1ccc(CCN=c2scc(C3(c4ccc(Cl)cc4)CCC3)n2CCc2ccc(OC)c(OC)c2)cc1OC` [Example 65, 4-[1-(4-Chlorophenyl)cyclobutyl]-3-(3,4-dimethoxyphenethyl)-2-(3,4-dimethoxyphenethylimino)-2,3dihydrothiazole hydrobromide], the inhibition at 1 µM is under 50% in assay [1], 54% in assay [2] and under 50% in assay [3].

Regarding `COc1ccc(CCN=c2scc(C3(c4ccc(Br)cc4)CCC3)n2CCc2ccc(OC)c(OC)c2)cc1OC` [Example 66, 4-[1-(4-Bromophenyl)cyclobutyl]-3-(3,4-dimethoxyphenethyl)-2-(3,4-dimethoxyphenethylimino)-2,3-dihydrothiazole hydrobromide], the inhibition at 1 µM in assay [1] is under 50%; in assay [2] it was 58%; in assay [3], under 50%.

Take `Clc1ccc(C2(c3csc(=NCCc4ccccc4)n3CCc3ccccc3)CCC2)cc1` [Example 64, 4-[1-(4-Chlorophenyl)cyclobutyl]-3-phenethyl-2-phenethylimino-2,3-dihydrothiazole hydrobromide]: the inhibition at 1 µM in assay [1] was under 50%; in assay [2] it was 102%; in assay [3], under 50%.

Turning to `Clc1ccc(C2(c3csc(=NCCc4ccccc4)n3CCc3ccccc3)CCC2)cc1Cl` [Example 24, 4-[1-(3,4-Dichlorophenyl)cyclobutyl]-3-phenethyl-2-phenethylimino-2,3-dihydrothiazole hydrobromide], the inhibition at 1 µM in assay [1] is under 50%; in assay [2], 90%; in assay [3], under 50%.

For `Cc1ccc(N=c2scc(C3(c4ccc5ccccc5c4)CCC3)n2-c2ccc(C)cc2C)c(C)c1` [Example 52, 4-[1-(2-Naphthyl)cyclobutyl]-3-(2,4-xylyl)-2-(2,4-xylylimino)-2,3-dihydrothiazole hydrobromide], the inhibition at 1 µM is under 50% in assay [1], 74% in assay [2] and under 50% in assay [3].

Take `Cc1ccccc1N=c1scc(C2(c3ccc(Cl)c(Cl)c3)CCC2)n1-c1ccccc1C` [Example 29, 4-[1-(3,4-Dichlorophenyl)cyclobutyl]-3-(o-tolyl)-2-(o-tolylimino)-2,3-dihydrothiazole hydrobromide]: the results for the inhibition at 1 µM in assay [1], in assay [2] and in assay [3] were under 50%, 74% and under 50%, respectively.

For `CCCCN=c1scc(C2(c3ccc4ccccc4c3)CCC2)n1CCCC` [Example 40, 3-Butyl-2-butylimino-4-[1-(2-naphthyl)cyclobutyl]-2,3-dihydrothiazole hydrobromide], the inhibition at 1 µM in assay [1] was 97%; in assay [2], 113%; in assay [3], under 50%.

As for `c1ccc(CN=c2scc(C3(c4ccc5ccccc5c4)CCC3)n2Cc2ccccc2)cc1` [Example 44, 3-Benzyl-2-benzylimino-4-[1-(2-naphthyl)cyclobutyl]-2,3-dihydrothiazole hydrobromide], the inhibition at 1 µM was 72% in assay [1], 96% in assay [2] and under 50% in assay [3].

Values taken from patent US6187802A, “Substituted 4-arylmethylene-2-imino-2,3-dihydrothiazoles and derivatives and their pharmaceutical use” (Knoll Aktiengesellschaft, priority 1997, dated 2001).
